Assay results published in US20240158446A1, “CYCLIC COMPOUND HAVING SELECTIVE INHIBITORY ACTION ON KRAS OVER HRAS AND NRAS” (CHUGAI SEIYAKU KABUSHIKI KAISHA, priority 2021, published 2024).
Like-named read-outs stand apart in the source and are kept apart here.

Key:
[1] = molecular target: GDP-bound NRAS wild-type protein (Homo sapiens, UniProt P01111); experiment: Binding to NRAS by surface plasmon resonance (SPR), Single Cycle Kinetics
[2] = molecular target: GDP-bound KRAS wild-type protein (Homo sapiens, UniProt P01116); experiment: Binding to KRAS by surface plasmon resonance (SPR), Single Cycle Kinetics; settings: GDP-bound KRAS wild-type protein, read-out: KRAS KD
Chain of GDP-bound KRAS wild-type protein (P01116 whole entry): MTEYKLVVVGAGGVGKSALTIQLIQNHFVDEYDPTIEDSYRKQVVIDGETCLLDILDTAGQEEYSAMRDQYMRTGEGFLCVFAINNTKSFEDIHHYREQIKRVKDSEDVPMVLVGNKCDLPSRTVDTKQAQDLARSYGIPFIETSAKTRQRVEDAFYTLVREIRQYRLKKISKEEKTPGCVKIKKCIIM

[3] = molecular target: GDP-bound HRAS wild-type protein (Homo sapiens, UniProt P01112); experiment: Binding to HRAS by surface plasmon resonance (SPR), Single Cycle Kinetics
Chain of GDP-bound HRAS wild-type protein (P01112 whole entry): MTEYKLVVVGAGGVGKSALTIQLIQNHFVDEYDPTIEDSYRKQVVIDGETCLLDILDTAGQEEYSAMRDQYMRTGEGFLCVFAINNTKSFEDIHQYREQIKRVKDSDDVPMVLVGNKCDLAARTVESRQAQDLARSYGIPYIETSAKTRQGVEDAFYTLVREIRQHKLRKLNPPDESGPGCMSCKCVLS

[4] = SPR, GDP-bound NRAS wild-type protein vs GDP-bound KRAS wild-type protein
[5] = SPR, GDP-bound HRAS wild-type protein vs GDP-bound KRAS wild-type protein
[6] = SPR Single Cycle Kinetics, 1:1 binding model

Chain of GDP-bound NRAS wild-type protein (P01111 whole entry): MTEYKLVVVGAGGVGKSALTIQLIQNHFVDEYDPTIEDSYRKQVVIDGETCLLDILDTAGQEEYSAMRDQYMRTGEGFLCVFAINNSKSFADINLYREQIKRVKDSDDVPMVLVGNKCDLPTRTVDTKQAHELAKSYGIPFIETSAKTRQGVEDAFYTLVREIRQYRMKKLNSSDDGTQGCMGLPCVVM

CCO[C@@H]1C[C@H]2C(=O)N(C)C3(CCC3)C(=O)N(C)[C@@H](C(CC)CC)C(=O)N(C)[C@H](C(=O)N(C)C)CC(=O)N(C)[C@@H](COC)C(=O)N[C@@H]([C@@H](C)CC)C(=O)N(C)CC(=O)N(C)[C@H]3C/C=C\CCN(C3=O)[C@@H](CC3CCCCC3)C(=O)N(C)CC(=O)N[C@@H](CCc3ccc(C(F)(F)F)c(OC)c3)C(=O)N2C1 [PP2335]
NRAS/KRAS (ratio of KD value for NRAS to KD value for KRAS) [1, 4]: A (a compound having 10 or more and less than 20 is denoted as A) | Kd ([2]; SPR, Single Cycle Kinetics): 1.4 nM | HRAS/KRAS (ratio of KD value for HRAS to KD value for KRAS) [3, 5]: A (a compound having 10 or more and less than 20 is denoted as A)

CC[C@H](C)[C@@H]1NC(=O)[C@@H]2CCC/C=C/c3ccc(cc3)C[C@@H](C(=O)N(C)CC(=O)N[C@@H](CCc3ccc(Cl)c(Cl)c3)C(=O)N3CCC[C@H]3C(=O)NC3(CC(C)(C)C3)C(=O)N(C)[C@@H](C3CCCC3)C(=O)N(C)[C@H](C(=O)N3CCCC3)CC(=O)N2C)N2CC/C=C\C[C@@H](C2=O)N(C)C(=O)CN(C)C1=O [PP2602]
NRAS/KRAS (ratio of KD value with respect to GDP-bound NRAS wild-type protein to KD value with respect to KRAS) ([1]; SPR KD ratio NRAS/KRAS, class symbols): A (a compound having 10 or more and less than 20 is denoted as A) | Kd [2, 6]: 0.25 nM | HRAS/KRAS (ratio of KD value with respect to GDP-bound HRAS wild-type protein to KD value with respect to KRAS) ([3]; SPR KD ratio HRAS/KRAS, class symbols): A (a compound having 10 or more and less than 20 is denoted as A)

CCO[C@@H]1C[C@H]2C(=O)NC3(CC(C)(C)C3)C(=O)N(C)[C@@H](C(CC)CC)C(=O)N(C)[C@H](C(=O)N3CCCC3)CC(=O)N(C)[C@@H](C)C(=O)N[C@@H]([C@@H](C)CC)C(=O)N(C)CC(=O)N(C)[C@H]3C/C=C\CCN(C3=O)[C@@H](Cc3ccc(C)cc3)C(=O)N(C)CC(=O)N[C@@H](CCc3ccc(Cl)c(Cl)c3)C(=O)N2C1 [PP2187]
NRAS/KRAS (ratio of KD value for NRAS to KD value for KRAS) [1, 4]: AA (a compound having 20 or more is denoted as AA) | Kd ([2]; SPR, Single Cycle Kinetics): 0.69 nM | HRAS/KRAS (ratio of KD value for HRAS to KD value for KRAS) [3, 5]: A (a compound having 10 or more and less than 20 is denoted as A)

CC[C@H](C)[C@@H]1NC(=O)[C@H](CC(C)C)N(C)C(=O)C[C@@H](C(=O)N2CCOCC2)N(C)C(=O)[C@H](C2CCCC2)N(C)C(=O)C2(CCC2)NC(=O)[C@@H]2C[C@@H](O)CN2C(=O)[C@H](CCc2cc(F)c(C(F)(F)F)c(F)c2)NC(=O)CN(C)C(=O)[C@H](Cc2ccc(C(F)(F)F)cc2)N2CCCC[C@@H](C2=O)N(C)C(=O)CN(C)C1=O [PP0868]
NRAS/KRAS (ratio of KD value for NRAS to KD value for KRAS) [1, 4]: C (A compound having a KD ratio of 0.1 or more and less than 3 is denoted as C) | Kd ([2]; SPR, Single Cycle Kinetics): 0.053 nM | HRAS/KRAS (ratio of KD value for HRAS to KD value for KRAS) [3, 5]: B (a compound having 3 or more and less than 10 is denoted as B)

CC[C@H](C)[C@@H]1NC(=O)[C@@H]2CCCCCCc3ccc(cc3)C[C@@H](C(=O)N(C)CC(=O)N[C@@H](CCc3ccc(C(F)(F)F)c(OC)c3)C(=O)N3C[C@H](OC(C)C)C[C@H]3C(=O)NC3(CC(C)(C)C3)C(=O)N(C)[C@@H](C3CCCC3)C(=O)N(C)[C@H](C(=O)N(C)C)CC(=O)N2C)N2CC/C=C\C[C@@H](C2=O)N(C)C(=O)CN(C)C1=O [PP3067]
NRAS/KRAS (ratio of KD value for NRAS to KD value for KRAS) [1, 4]: A (a compound having 10 or more and less than 20 is denoted as A) | Kd ([2]; SPR, Single Cycle Kinetics): 0.053 nM | HRAS/KRAS (ratio of KD value for HRAS to KD value for KRAS) [3, 5]: B (a compound having 3 or more and less than 10 is denoted as B)

CCO[C@@H]1C[C@H]2C(=O)NC3(CCC3)C(=O)N(C)[C@@H](C3CCCC3)C(=O)N(C)[C@H](C(=O)N3CCOCC3)CC(=O)N(C)[C@@H](CC(C)C)C(=O)N[C@@H]([C@@H](C)CC)C(=O)N(C)CC(=O)N(C)[C@H]3CCCCCN(C3=O)[C@@H](Cc3ccc(F)c(C)c3)C(=O)N(C)CC(=O)N[C@@H](CCc3cc(F)c(C(F)(F)F)c(F)c3)C(=O)N2C1 [PP0922]
NRAS/KRAS (ratio of KD value for NRAS to KD value for KRAS) [1, 4]: B (a compound having 3 or more and less than 10 is denoted as B) | Kd ([2]; SPR, Single Cycle Kinetics): 0.5 nM | HRAS/KRAS (ratio of KD value for HRAS to KD value for KRAS) [3, 5]: B (a compound having 3 or more and less than 10 is denoted as B)

CC[C@H](C)[C@@H]1NC(=O)[C@H](CC(C)C)N(C)C(=O)C[C@@H](C(=O)N2CCOCC2)N(C)C(=O)[C@H](C2CCCC2)N(C)C(=O)C2(CCCC2)NC(=O)[C@@H]2C[C@H](OC)CN2C(=O)[C@H](CCc2cc(F)c(C(F)(F)F)c(F)c2)NC(=O)CN(C)C(=O)[C@H](Cc2ccc(C(F)(F)F)cc2)N2CCCC[C@@H](C2=O)N(C)C(=O)CN(C)C1=O [PP0557]
NRAS/KRAS (ratio of KD value with respect to NRAS to KD value with respect to KRAS) [1, 4]: B (a compound having 3 or more and less than 10 is denoted as B) | Kd [2, 6]: 0.11 nM | HRAS/KRAS (ratio of KD value with respect to HRAS to KD value with respect to KRAS) [3, 5]: B (a compound having 3 or more and less than 10 is denoted as B)
